Earlier results as cited in patent publication EP3663750B1, “SCAFFOLDED NUCLEIC ACID POLYMER PARTICLES AND METHODS OF MAKING AND USING” (Life Technologies Corporation, priority 2009, dated 2010).

Conditions: Oil Soluble Azo Initiator Compounds; temperature at which the initiator has a half-life of 10h

Q: Which “10 hour half-life decomposition temperature” value does the source give for `CCC(C)(C#N)N=NC(C)(C#N)CC` (centres unmarked) here?
A: 67 °C

Q: With `C=CCNC(=O)C(C)(C)N=NC(C)(C)C(=O)NCC=C` as the compound, how does the “10 hour half-life decomposition temperature” value read?
A: 96 °C

Q: With `CCCCNC(=O)C(C)(C)N=NC(C)(C)C(=O)NCCCC` as the compound, how does the “10 hour half-life decomposition temperature” value read?
A: 110 °C

Q: For `CC(C)(N=NC(C)(C)C(=O)NC1CCCCC1)C(=O)NC1CCCCC1`, which “10 hour half-life decomposition temperature” value is on record?
A: 111 °C

Q: With `N#CC1(N=NC2(C#N)CCCCC2)CCCCC1` as the compound, how does the “10 hour half-life decomposition temperature” value read?
A: 88 °C

Q: Which “10 hour half-life decomposition temperature” value does the source give for `CC(C)CC(C)(C#N)N=NC(C)(C#N)CC(C)C` (centres unmarked) here?
A: 51 °C

Same assay, conditions: Water Soluble Azo Initiator Compounds; temperature at which the initiator has a half-life of 10h

Q: Which “10 hour half-life decomposition temperature” value does the source give for `CC(C)(N=NC(C)(C)C(=N)N1CCCC1)C(=N)N1CCCC1` here?
A: 67 °C

Q: Which “10 hour half-life decomposition temperature” value does the source give for `CC(C)(N=NC(C)(C)C(=O)NCCO)C(=O)NCCO` here?
A: 87 °C

Q: Which “10 hour half-life decomposition temperature” value does the source give for `CC(C)(N=NC(C)(C)C1=NCCN1CCO)C1=NCCN1CCO` here?
A: 60 °C

Same assay, conditions: buffer

Q: With `CC(C)(N=NC(C)(C)C1=NCCN1)C1=NCCN1` [drawing 6] as the compound, how does the “10 hour half-life decomposition temperature” value read?
A: 61 °C

Q: Which “10 hour half-life decomposition temperature” value does the source give for `CC(C)(N=NC(C)(C)C1=NCCN1)C1=NCCN1` [drawing 1] here?
A: 44 °C
